Data on two compounds can be found in patent EP3839043A1, “SCREENING METHODS FOR COMPOUNDS MODULATING POLYAMINE TRANSPORT” (Katholieke Universiteit Leuven, priority 2019, dated 2021).

This assay deals with T1, Purified ATP13A2 (Homo sapiens, UniProt Q9NQ11).
T1 sequence (Q9NQ11 1-1175 isoform Q9NQ11-3): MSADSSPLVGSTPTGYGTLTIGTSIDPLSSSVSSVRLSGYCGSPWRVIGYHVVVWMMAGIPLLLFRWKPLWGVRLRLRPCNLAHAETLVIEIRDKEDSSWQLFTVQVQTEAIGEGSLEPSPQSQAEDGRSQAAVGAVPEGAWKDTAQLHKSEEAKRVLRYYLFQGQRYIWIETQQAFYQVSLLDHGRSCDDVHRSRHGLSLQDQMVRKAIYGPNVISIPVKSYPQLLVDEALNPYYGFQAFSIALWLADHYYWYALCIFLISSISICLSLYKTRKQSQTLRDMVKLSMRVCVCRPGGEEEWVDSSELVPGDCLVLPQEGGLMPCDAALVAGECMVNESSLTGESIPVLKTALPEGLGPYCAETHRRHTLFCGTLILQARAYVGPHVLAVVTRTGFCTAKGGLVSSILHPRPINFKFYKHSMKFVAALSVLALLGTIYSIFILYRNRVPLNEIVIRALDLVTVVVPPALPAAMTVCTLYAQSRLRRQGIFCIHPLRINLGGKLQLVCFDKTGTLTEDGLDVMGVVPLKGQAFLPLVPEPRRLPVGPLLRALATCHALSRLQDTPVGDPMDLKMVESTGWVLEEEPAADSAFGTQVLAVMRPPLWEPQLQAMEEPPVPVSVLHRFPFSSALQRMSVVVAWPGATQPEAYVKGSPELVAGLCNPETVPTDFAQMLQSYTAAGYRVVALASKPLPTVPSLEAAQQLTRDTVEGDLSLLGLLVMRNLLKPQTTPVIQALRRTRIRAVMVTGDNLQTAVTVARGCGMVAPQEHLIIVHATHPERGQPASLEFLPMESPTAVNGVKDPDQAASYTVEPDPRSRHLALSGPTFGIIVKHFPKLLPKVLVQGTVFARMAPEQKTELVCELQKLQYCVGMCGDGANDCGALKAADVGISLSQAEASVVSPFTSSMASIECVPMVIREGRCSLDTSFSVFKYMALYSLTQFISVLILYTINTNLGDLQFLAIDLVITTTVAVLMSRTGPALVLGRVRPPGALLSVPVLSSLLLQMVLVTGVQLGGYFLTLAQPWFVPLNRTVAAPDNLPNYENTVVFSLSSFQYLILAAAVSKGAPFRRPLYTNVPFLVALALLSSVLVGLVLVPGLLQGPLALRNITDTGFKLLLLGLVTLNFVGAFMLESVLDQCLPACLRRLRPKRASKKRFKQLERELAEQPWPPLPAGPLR
Kind of assay: ATPase assay (ADP-Glo Max), purified ATP13A2 from yeast expression system. It counts as biochemical. The arrangement: we obtained >95% pure, full length and solubilized ATP13A2; biotin acceptor domain (BAD) tag behind a thrombin cleavage site (C, cleaved yes); made in house; host or cells: S. cerevisiae W303-1B/Gal4-ΔPep4, pYeDP60 vector. Conditions: for Vmax ± SEM: Purified ATP13A2 with 125 µM PA and 125 µM PI(3,5)P2. On the procedure: ATPase assay - The ATPase activity of ATP13A2 was assessed using a commercially available luminescence assay (ADP-Glo Max assay, Promega) that monitors the production of ADP via luciferase activity. The reactions were performed for 30 min (37°C) in a final volume of 25 µl. The assay reaction mixture contained 50 mM MOPS-KOH (pH 7), 100 mM KCI, 11 mM MgCl2, 1 mM DTT, 195 µM DDM, various concentrations of the indicated compound, and either microsomes (5 µg) harvested from SH-SY5Y cells overexpressing ATP13A2 (WT or mutants) or purified ATP13A2 (0.5 µg). When purified ATP13A2 was used, we included 125 µM PA, 125 µM PI(3,5)P2 and 19.5 µM DDM in the reaction buffer. The assay was started by the addition of 5 mM ATP and was terminated by adding 25 µl of ADP-Glo Reagent. The 96-well plate was then incubated for 40 min at room temperature, followed by the addition of 50 µl of ADP-Glo Max Detection Reagent. After 40 min, luminescence was detected using a FlexStation 3.0 system (Molecular Devices). Dose-response curves and n/Km/Vmax values were calculated using GraphPad Prism Software (GraphPad Software Inc.).
Transformation and overexpression of ATP13A2 in yeast - The S. cerevisiae W303-1B/Gal4-ΔPep4 strain (leu2-3, his3-11,15, trp1-1::TRP1-GAL10-GAL4, ura3-1, ade2-1, canr, cir^+, ΔPep4 MAT; a kind gift from Rosa Lopez Marques) was transformed according to the lithium acetate/single-stranded carrier DNA/polyethylene glycol method [Gietz, R. D. & Woods, R. A. Methods Enzymol 350, 87-96 (2002)], with the pYeDP60 vector containing a yeast codon optimized version of human ATP13A2 variant 2 (WT or the catalytically dead E343A mutant) followed by a thrombin cleavage site and a C-terminal BAD tag [Azouaoui, H. et al. PLoS One 9, e112176, (2014); Jidenko, M. et al.Protein Expr Purif 48, 32-42, (2006)]. The transformation mixture was grown for 48 h at 30°C on minimal medium agar plates lacking uracil (0.54% yeast nitrogen base without amino acids, 0.12% yeast drop-out mix without Ura, 2% glucose, and 2% agar) to select yeast colonies that acquired the plasmid. These colonies were then cultured in 20 ml of MM-Ura medium (0.67% yeast nitrogen base without amino acids, 0.19% yeast drop-out mix without Ura, and 2% glucose) and grown for 24 h at 28°C and 200 rpm. The MM-Ura yeast pre-culture was used to inoculate 100 ml of MM-Ura medium to a final OD600 of 0.2, followed by a 12 h incubation period (28°C and 200 rpm). The second pre-culture was inoculated into 4.5 l of YPGE2X medium (2% yeast extract, 2% bactopeptone, 1% glucose, and 2.7% ethanol) to a final OD600 of 0.05 and grown for 36 h (28°C and 175 rpm). ATP13A2-BAD expression was induced with 2% galactose, followed by a second galactose induction 12 h later. After another 12 h, the pellet was collected (1,000 x g; 10 min; 4°C).
Yeast membrane preparation - Yeast cells were broken with glass beads using a BeadBeater (BioSpec products). The lysis buffer contained 50 mM Tris-HCI (pH 7.5), 1 mM EDTA, 0.6 M sorbitol, 1 mM phenylmethylsulfonyl fluoride and SigmaFast protease inhibitor. To remove cell debris and nuclei, the crude extract was centrifuged at 2,000 x g for 20 min (4°C). The supernatant (S1) was centrifuged at 20,000 x g for 20 min (4°C) to pellet the heavy membrane fraction (P2), and the resulting supernatant (S2) was further centrifuged at 200,000 x g for 1 h (4°C). The resulting pellet (i.e., the light membrane fraction, P3) was resuspended in 20 mM HEPES-Tris (pH 7.4), 0.3 M sucrose and 0.1 mM CaCl2. The total protein concentration was determined using a Bradford assay (B6916, Sigma-Aldrich).
ATP13A2-BAD purification - The method used to purify ATP13A2 was based on the purification of overexpressed Drs2p from yeast membranes. Yeast P3 membranes were diluted to 5 mg of total protein/ml in SSR buffer (50 mM MOPS-KOH (pH 7), 100 mM KCI, 20% glycerol, 5 mM MgCl2, 1 mM DTT, and SigmaFast protease inhibitor cocktail) and solubilized using DDM, with a detergent to protein ratio of 1:1.
For orientation: ADP-Glo turns the ADP formed in a reaction into a luminescent signal.

`NCCCNCCCCNCCCN` [Spermine, spermine]: the “Vmax ± SEM” value is listed as 159 ± 10 nmol ADP/mg/min. Besides, the “ATPase activity of purified ATP13A2” value (indicated SPM concentrations) is on record as “stimulated the ATPase activity”.
Consider `NCCCCNCCCN` [Spermidine, spermidine], for which the “Vmax ± SEM” value stood at 194 ± 26 nmol ADP/mg/min.
